# Measurements: patent US6617438B1, “Oligoribonucleotides with enzymatic activity” (Sirna Therapeutics, Inc., priority 1997, dated 2003)
# “And” between values parts separate entries of the source, which are not always exact repeats. Equal values may be shown once. Read-outs that look alike come from different tables or passages of the source. Marks after values point to notes of the source that are not given here.
# Assays:
# [1] = biological target: T1, Y639F mutant T7 polymerase (Escherichia phage T7, UniProt P00573, Y639F); format: biochemical, bacteriophage T7
# T1 sequence (P00573 whole entry Y639F, looked up): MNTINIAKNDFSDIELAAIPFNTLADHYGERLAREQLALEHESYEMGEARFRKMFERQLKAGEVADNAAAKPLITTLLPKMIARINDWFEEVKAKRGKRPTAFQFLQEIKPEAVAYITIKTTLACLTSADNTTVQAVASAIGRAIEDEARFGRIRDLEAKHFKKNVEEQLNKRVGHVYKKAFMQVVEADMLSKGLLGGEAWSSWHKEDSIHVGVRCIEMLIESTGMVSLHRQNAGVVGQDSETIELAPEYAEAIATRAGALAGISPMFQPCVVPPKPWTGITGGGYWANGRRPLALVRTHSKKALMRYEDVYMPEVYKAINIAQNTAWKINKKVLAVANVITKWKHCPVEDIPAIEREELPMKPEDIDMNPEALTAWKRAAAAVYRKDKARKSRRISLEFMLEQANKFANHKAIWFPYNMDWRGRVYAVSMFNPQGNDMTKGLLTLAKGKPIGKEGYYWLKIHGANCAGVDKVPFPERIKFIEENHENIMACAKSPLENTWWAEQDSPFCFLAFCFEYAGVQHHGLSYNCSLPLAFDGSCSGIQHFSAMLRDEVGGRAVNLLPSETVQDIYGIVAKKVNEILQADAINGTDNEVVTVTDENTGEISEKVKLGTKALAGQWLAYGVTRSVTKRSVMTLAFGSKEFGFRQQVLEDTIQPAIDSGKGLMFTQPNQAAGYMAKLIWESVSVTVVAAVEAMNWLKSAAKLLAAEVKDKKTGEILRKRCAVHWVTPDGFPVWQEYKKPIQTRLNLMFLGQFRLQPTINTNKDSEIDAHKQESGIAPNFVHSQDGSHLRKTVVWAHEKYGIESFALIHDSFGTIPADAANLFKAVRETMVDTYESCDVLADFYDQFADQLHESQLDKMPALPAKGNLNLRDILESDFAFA
# [2] = biological target: T2, Bacteriophage T7 RNA polymerase (wild type) (Escherichia phage T7, UniProt P00573); experiment: biochemical; format: biochemical; details: for activity at 2000 µM: read-out: % ribo control
# T2 construct: purchased Boehringer Mannheim
# T2 sequence (P00573 whole entry): as the sequence (P00573 whole entry Y639F, looked up) above, with F639Y counted along it
# Method: Bacteriophage T7 RNA polymerase was purchased from Boehringer Mannheim at 0.4 U/μL concentration. Applicant used the commercial buffer supplied with the enzyme and 0.2 μCi alpha-^32P NTP in a 50 μL reaction with nucleotides triphosphates at 2 mM each. The template was a double-stranded PCR fragment, which was used in previous screens. Reactions were carried out at 37° C. for 1 hour. Ten μL of the sample was run on a 7.5% analytical PAGE and bands were quantitated using a Phosphorlmager.
# [3] = biological target: T1, Y639F mutant T7 polymerase; format: biochemical, bacteriophage T7; remark: listed apart in the source
# [4] = high-risk patients; cited from earlier work
# [5] = tested on: BT-474 xenografts; details: combination study, dose not given; cited from earlier work
# [6] = wild type T7 polymerase, commercial buffer, 37° C., 1 hour, label ATP
# [7] = together with 2′-his-UTP, rATP and rGTP, condition number 9
# [8] = together with rUTP, condition number 9
# [9] = COND# 1: 20 mM MgCl2, 10% methanol, 1 mM LiCl, no PEG, 25° C.
# [10] = COND# 2: 20 mM MgCl2, 10% methanol, 1 mM LiCl, 4% PEG, 25° C.
# [11] = COND# 3: 12 mM MgCl2, 4% PEG, 25° C.
# [12] = COND# 4: 12 mM MgCl2, 10% methanol, 4% PEG, 25° C.
# [13] = COND# 5: 12 mM MgCl2, 1 mM LiCl, 4% PEG, 25° C.
# [14] = COND# 6: 12 mM MgCl2, 10% methanol, 1 mM LiCl, 4% PEG, 25° C.
# [15] = COND# 7: 20 mM MgCl2, 10% methanol, 1 mM LiCl, no PEG, 37° C.
# [16] = COND# 8: 20 mM MgCl2, 10% methanol, 1 mM LiCl, 4% PEG, 37° C.
# [17] = COND# 9: 12 mM MgCl2, 4% PEG, 37° C.
# [18] = COND# 10: 12 mM MgCl2, 10% methanol, 4% PEG, 37° C.
# [19] = COND# 11: 12 mM MgCl2, 1 mM LiCl, 4% PEG, 37° C.
# [20] = COND# 12: 12 mM MgCl2, 10% methanol, 1 mM LiCl, 4% PEG, 37° C.
# [21] = together with 2′-his-UTP and 2′-amino-CTP, same buffer (condition 9)
# [22] = together with rUTP and rCTP, same buffer (condition 9)
# [23] = wild type T7 polymerase, commercial buffer, 37° C., 1 hour, label GTP
molecule,measurement,setting,value
"CSCO[C@@H]1[C@H](O)[C@@H](CO)O[C@H]1n1cnc2c(=O)[nH]c(N)nc21 [2′-O—MTM—GTP, 2′-O-methylthiomethyl guanosine]","full-length transcript, percent compared to all-rNTP control",[1],6% and 3% and 1% and 4% and 2% and 0%
same,activity at 2000 µM,[2]; [6],3%
"Nc1nc(N)c2ncn([C@@H]3O[C@H](CO)C(O)C3N)c2n1 (stereo partly drawn) [2′-NH2—DAP, 2′-deoxy-2′amino-2,6-diaminopurine riboside]","full-length transcript, percent compared to all-rNTP control",[1],0% and 1%
same,percentage of incorporation compared to the all-RNA control,[3],8.9* % and 9.6%
"NC(Cc1ccccc1)C(=O)NC1C(O)[C@@H](CO)O[C@H]1n1ccc(=O)[nH]c1=O (stereo partly drawn) [phe-2′-NH2—UTP, 2′-(N-phenylalanyl)amino-2′-deoxy-uridine]","full-length transcript, percent compared to all-rNTP control",[1],8% and 6% and 10% and 12% and 7% and 4%
same,activity at 2000 µM,[2]; [6],1%
2′-F—GTP,% ribo control,[2],4%
Nc1ccn([C@@H]2O[C@H](COP(=O)(O)OP(=O)(O)OP(=O)(O)O)[C@@H](O)[C@H]2O)c(=O)n1 [CTP],percentage of incorporation compared to the all-RNA control,[3]; [7],16.1%
same,percentage of incorporation compared to the all-RNA control,[3]; [8],100%
"O=c1ccn([C@@H]2O[C@H](COP(=O)(O)OP(=O)(O)OP(=O)(O)O)[C@@H](O)[C@H]2F)c(=O)[nH]1 [2′-F—UTP, 2′-deoxy-2′-fluoro-uridine triphosphate]","full-length transcript, percent compared to all-rNTP control",[1],100%
same,activity at 2000 µM,[2]; 1 h,100%
"CC(N)C(=O)NC1C(O)[C@@H](CO)O[C@H]1n1ccc(=O)[nH]c1=O (stereo partly drawn) [ala-2′-NH2—UTP, 2′-(N-alanyl) amino-2′-deoxy-uridine]",activity at 2000 µM,[2]; [6],2%
2′-dGTP,% ribo control,[2],3%
Nc1ncnc2c1ncn2[C@H]1C[C@H](O)[C@@H](COP(=O)(O)OP(=O)(O)OP(=O)(O)O)O1 [2′-dATP],"full-length transcript, percent compared to all-rNTP control",[1]; [9],9%
same,"full-length transcript, percent compared to all-rNTP control",[1]; [10],3%
same,"full-length transcript, percent compared to all-rNTP control",[1]; [11],19%
same,"full-length transcript, percent compared to all-rNTP control",[1]; [12],23%
same,"full-length transcript, percent compared to all-rNTP control",[1]; [13],9%
same,"full-length transcript, percent compared to all-rNTP control",[1]; [14],24%
same,"full-length transcript, percent compared to all-rNTP control",[1]; [15],6%
same,"full-length transcript, percent compared to all-rNTP control",[1]; [16],3%
same,"full-length transcript, percent compared to all-rNTP control",[1]; [17],84%
same,"full-length transcript, percent compared to all-rNTP control",[1]; [18],70%
same,"full-length transcript, percent compared to all-rNTP control",[1]; [19],28%
same,"full-length transcript, percent compared to all-rNTP control",[1]; [20],51%
same,percentage of incorporation compared to the all-RNA control,[3]; [21],2.3%
same,percentage of incorporation compared to the all-RNA control,[3]; [22],146.3%
"NCCC(=O)N[C@@H]1[C@H](O)[C@@H](CO)O[C@H]1n1ccc(=O)[nH]c1=O [2′-β NH2-ala-UTP, 2′-(N-β-alanyl)amino-2′-deoxy uridine]",activity at 2000 µM,[2]; [6],3%
"NO[C@@H]1[C@H](O)[C@@H](CO)O[C@H]1n1ccc(=O)[nH]c1=O [2′-O—NH2—UTP, 2′-O-amino-uridine]",activity at 2000 µM,[2]; [6],1%
"CO[C@@H]1[C@H](O)[C@@H](COP(=O)(O)OP(=O)(O)OP(=O)(O)O)O[C@H]1n1cnc2c(=O)[nH]c(N)nc21 [2′-O—Me—GTP, 2′-O-methyl-guanosine-5′-Triphosphate]","full-length transcript, percent compared to all-rNTP control",[1],4% and 5% and 3% and 2%
same,activity at 2000 µM,[2]; 1 h,3%
CC/C(=C(\c1ccccc1)c1ccc(OCCN(C)C)cc1)c1ccccc1 [tamoxifen],reduction of breast cancer incidence,[4],49%
Nc1ncnc2c1ncn2[C@@H]1O[C@H](COP(=O)(O)OP(=O)(O)OP(=O)(O)O)[C@@H](O)[C@H]1O [ATP],percentage of incorporation compared to the all-RNA control,[3]; [21],15.7%
same,percentage of incorporation compared to the all-RNA control,[3]; [22],100%
CO[C@@H]1[C@H](O)[C@@H](COP(=O)(O)OP(=O)(O)OP(=O)(O)O)O[C@H]1n1cnc2c(N)ncnc21 [2′-O—Me—ATP],"full-length transcript, percent compared to all-rNTP control",[1],0% and 2% and 1%
"CSCO[C@@H]1[C@H](O)[C@@H](COP(=O)(O)OP(=O)(O)OP(=O)(O)O)O[C@H]1n1ccc(=O)[nH]c1=O [2′-O-MTM-UTP, 2′-O-methylthiomethyl-uridine-5 ′-triphosphate]",activity at 2000 µM,[2]; [6],64%
CC(=O)O[C@H]1C(=O)[C@@]2(C)[C@H]([C@H](OC(=O)c3ccccc3)[C@]3(O)C[C@H](OC(=O)[C@H](O)[C@@H](NC(=O)c4ccccc4)c4ccccc4)C(C)=C1C3(C)C)[C@]1(OC(C)=O)CO[C@@H]1C[C@@H]2O [paclitaxel],inhibition of tumor growth,[5],35%
"Nc1ncnc2c1ncn2[C@@H]1O[C@H](COP(=O)(O)OP(=O)(O)OP(=O)(O)O)[C@@H](O)[C@H]1F [2′-F—ATP, 2′-deoxy-2′-fluoro-adenine triphosphate]","full-length transcript, percent compared to all-rNTP control",[1]; [9],227%
same,"full-length transcript, percent compared to all-rNTP control",[1]; [10],252%
same,"full-length transcript, percent compared to all-rNTP control",[1]; [11],98%
same,"full-length transcript, percent compared to all-rNTP control",[1]; [12],103%
same,"full-length transcript, percent compared to all-rNTP control",[1]; [13],100%
same,"full-length transcript, percent compared to all-rNTP control",[1]; [14],116%
same,"full-length transcript, percent compared to all-rNTP control",[1]; [15],288%
same,"full-length transcript, percent compared to all-rNTP control",[1]; [16],278%
same,"full-length transcript, percent compared to all-rNTP control",[1]; [17],471%
same,"full-length transcript, percent compared to all-rNTP control",[1]; [18],198%
same,"full-length transcript, percent compared to all-rNTP control",[1]; [19],317%
same,"full-length transcript, percent compared to all-rNTP control",[1]; [20],185%
same,percentage of incorporation compared to the all-RNA control,[3]; [21],4%
same,percentage of incorporation compared to the all-RNA control,[3]; [22],222.6%
COC1C(O)[C@@H](CO)O[C@H]1n1cc(CCCN)c(=O)[nH]c1=O (stereo partly drawn) [5-(3-aminopropyl)-2′-O-methyl uridine],"full-length transcript, percent compared to all-rNTP control",[1],4% and 10%
same,activity at 2000 µM,[2]; [23],0%
"CSCO[C@@H]1[C@H](O)[C@@H](CO)O[C@H]1n1cnc2c(N)ncnc21 [2′-O—MTM—ATP, 2′-O-methylthiomethyl adenosine]","full-length transcript, percent compared to all-rNTP control",[1],0% and 1%
same,activity at 2000 µM,[2]; [23],1%
2′-deoxy-2′-amino-CTP [2′-NH2—CTP],"full-length transcript, percent compared to all-rNTP control",[1]; [9],11%
same,"full-length transcript, percent compared to all-rNTP control",[1]; [10],37%
same,"full-length transcript, percent compared to all-rNTP control",[1]; [11],45%
same,"full-length transcript, percent compared to all-rNTP control",[1]; [12],64%
same,"full-length transcript, percent compared to all-rNTP control",[1]; [13],25%
same,"full-length transcript, percent compared to all-rNTP control",[1]; [14],70%
same,"full-length transcript, percent compared to all-rNTP control",[1]; [15],26%
same,"full-length transcript, percent compared to all-rNTP control",[1]; [16],54%
same,"full-length transcript, percent compared to all-rNTP control",[1]; [17],292%
same,"full-length transcript, percent compared to all-rNTP control",[1]; [18],264%
same,"full-length transcript, percent compared to all-rNTP control",[1]; [19],109%
same,"full-length transcript, percent compared to all-rNTP control",[1]; [20],244%
same,% ribo control,[2]; [23],59%
same,percentage of incorporation compared to the all-RNA control,[3]; [7],9.5* %
same,percentage of incorporation compared to the all-RNA control,[3]; [8],232.7%
"COC1C(O)[C@@H](CO)O[C@H]1n1cnc2c(N)nc(N)nc21 (stereo partly drawn) [2′-O—Me—DAP, 2′-O-methyl-2,6-diaminopurine riboside]","full-length transcript, percent compared to all-rNTP control",[1],4% and 5% and 3%
same,percentage of incorporation compared to the all-RNA control,[3],1.9% and 5.7%
2′-deoxy-2′-amino-UTP [2′-NH2—UTP],% ribo control,[2],39%
"CSCO[C@@H]1[C@H](O)[C@@H](CO)O[C@H]1n1ccc(N)nc1=O [2′-O—MTM—CTP, 2′-O-methylthiomethyl cytidine]","full-length transcript, percent compared to all-rNTP control",[1],2% and 4% and 5% and 3% and 1%
same,percentage of incorporation compared to the all-RNA control,[3],5.9% and 5.1%
